From patent publication US6689773B2, “Uracil substituted phenyl sulfamoyl carboxamides” (BASF Aktiengesellschaft, priority 2000, dated 2004)

Experiments:
Assay type in all cases: in vivo
[1] = test system: DIGSA, Crabgrass, (Hairy) L, Digitaria sanguinalis, (L)Scop; assay: Preemergence herbicidal evaluation (Example 148); conditions: rating scale 0-9, two to four weeks after treatment
Summary of the method: (§1)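 Following sowing, cups received a soil spray of the compound dissolved in aqueous acetone, dosed to about 0.125 to 0.250 kg per hectare. Growth continued in the greenhouse under routine care before visual scoring at two to four weeks.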

[2] = test system: ZEAMX, Field corn, Zea mays L.; assay: Preemergence herbicidal evaluation (Example 148); conditions: rating scale 0-9, two to four weeks after treatment
Summary of the method: as §1

[3] = test system: ABUTH, Velvetleaf, Abutilon theophrasti, Medic.; assay: Preemergence herbicidal evaluation (Example 148); conditions: rating scale 0-9, two to four weeks after treatment
Summary of the method: as §1

[4] = test system: ECHCG, Barnyardgrass, Echinochloa crusgalli, (L.)Beau; assay: Preemergence herbicidal evaluation (Example 148); conditions: rating scale 0-9, two to four weeks after treatment
Summary of the method: as §1

[5] = test system: CHEAL, Lambsquarters, Chenopodium album, L. Common; assay: Preemergence herbicidal evaluation (Example 148); conditions: rating scale 0-9, two to four weeks after treatment
Summary of the method: as §1

[6] = test system: AMBEL, Ragweed, Common, Ambrosia artemiisifolia, L.; assay: Preemergence herbicidal evaluation (Example 148); conditions: rating scale 0-9, two to four weeks after treatment
Summary of the method: as §1

[7] = test system: SETVI, Green foxtail, Setaria viridis, (L.)Beau; assay: Preemergence herbicidal evaluation (Example 148); conditions: rating scale 0-9, two to four weeks after treatment
Summary of the method: as §1

[8] = test system: XANST, Cocklebur, Xanthium strumariam; assay: Preemergence herbicidal evaluation (Example 148); conditions: rating scale 0-9, two to four weeks after treatment
Summary of the method: as §1

[9] = test system: IPOHE, Morningglory, Ivyleaf, Ipomoea hederacea, (L)Jacq.; assay: Preemergence herbicidal evaluation (Example 148); conditions: rating scale 0-9, two to four weeks after treatment
Summary of the method: as §1

[10] = test system: GLXMA, Soybean, Glycine max, (L.) Merr.; assay: Preemergence herbicidal evaluation (Example 148); conditions: rating scale 0-9, two to four weeks after treatment
Summary of the method: as §1

[11] = test system: TRZAW, Winter wheat, Tritium Aestivum, L. (Winter); assay: Preemergence herbicidal evaluation (Example 148); conditions: rating scale 0-9, two to four weeks after treatment
Summary of the method: as §1

[12] = test system: ALOMY, Blackgrass, Alopecurus myosuroides; assay: Preemergence herbicidal evaluation (Example 148); conditions: rating scale 0-9, two to four weeks after treatment
Summary of the method: as §1

[13] = test system: DIGSA, Crabgrass, (Hairy) L, Digitaria sanguinalis, (L)Scop; assay: Postemergence herbicidal evaluation (Example 147); conditions: rating scale 0-9, two to three weeks after treatment
Summary of the method: (§2)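 Greenhouse postemergence test: two-week seedlings sprayed at about 0.016 to 0.032 kg/ha active. Scored visually, 0-9 scale, after two to three weeks.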

[14] = test system: ZEAMX, Field corn, Zea mays L.; assay: Postemergence herbicidal evaluation (Example 147); conditions: rating scale 0-9, two to three weeks after treatment
Summary of the method: as §2

[15] = test system: ABUTH, Velvetleaf, Abutilon theophrasti, Medic.; assay: Postemergence herbicidal evaluation (Example 147); conditions: rating scale 0-9, two to three weeks after treatment
Summary of the method: as §2

[16] = test system: ECHCG, Barnyardgrass, Echinochloa crusgalli, (L.)Beau; assay: Postemergence herbicidal evaluation (Example 147); conditions: rating scale 0-9, two to three weeks after treatment
Summary of the method: as §2

[17] = test system: CHEAL, Lambsquarters, Chenopodium album, L. Common; assay: Postemergence herbicidal evaluation (Example 147); conditions: rating scale 0-9, two to three weeks after treatment
Summary of the method: as §2

[18] = test system: AMBEL, Ragweed, Common, Ambrosia artemiisifolia, L.; assay: Postemergence herbicidal evaluation (Example 147); conditions: rating scale 0-9, two to three weeks after treatment
Summary of the method: as §2

[19] = test system: SETVI, Green foxtail, Setaria viridis, (L.)Beau; assay: Postemergence herbicidal evaluation (Example 147); conditions: rating scale 0-9, two to three weeks after treatment
Summary of the method: as §2

[20] = test system: XANST, Cocklebur, Xanthium strumariam; assay: Postemergence herbicidal evaluation (Example 147); conditions: rating scale 0-9, two to three weeks after treatment
Summary of the method: as §2

[21] = test system: IPOHE, Morningglory, Ivyleaf, Ipomoea hederacea, (L)Jacq.; assay: Postemergence herbicidal evaluation (Example 147); conditions: rating scale 0-9, two to three weeks after treatment
Summary of the method: as §2

[22] = test system: GLXMA, Soybean, Glycine max, (L.) Merr.; assay: Postemergence herbicidal evaluation (Example 147); conditions: rating scale 0-9, two to three weeks after treatment
Summary of the method: as §2

[23] = test system: TRZAW, Winter wheat, Tritium Aestivum, L. (Winter); assay: Postemergence herbicidal evaluation (Example 147); conditions: rating scale 0-9, two to three weeks after treatment
Summary of the method: as §2

[24] = test system: ALOMY, Blackgrass, Alopecurus myosuroides; assay: Postemergence herbicidal evaluation (Example 147); conditions: rating scale 0-9, two to three weeks after treatment
Summary of the method: as §2

Cn1c(C(F)(F)F)cc(=O)n(-c2cc(C(=O)NS(N)(=O)=O)c(Cl)cc2F)c1=O [Example 58]
0.0: Preemergence herbicidal rating DIGSA ([1]; rate 0.125 kg/ha) | Preemergence herbicidal rating ZEAMX ([2]; rate 0.125 kg/ha) | Preemergence herbicidal rating TRZAW ([11]; rate 0.125 kg/ha) | Preemergence herbicidal rating ALMOY ([12]; rate 0.125 kg/ha) | Preemergence herbicidal rating ALMOY ([12]; rate 0.25 kg/ha)
7.0: Postemergence herbicidal rating ECHCG ([16]; rate 0.032 kg/ha)
9.0: Preemergence herbicidal rating ABUTH ([3]; rate 0.125 kg/ha) | Preemergence herbicidal rating ABUTH ([3]; rate 0.25 kg/ha) | Preemergence herbicidal rating CHEAL ([5]; rate 0.125 kg/ha) | Preemergence herbicidal rating CHEAL ([5]; rate 0.25 kg/ha) | Preemergence herbicidal rating AMBEL ([6]; rate 0.125 kg/ha) | Preemergence herbicidal rating AMBEL ([6]; rate 0.25 kg/ha) | Preemergence herbicidal rating IPOHE ([9]; rate 0.125 kg/ha) | Preemergence herbicidal rating IPOHE ([9]; rate 0.25 kg/ha) | Preemergence herbicidal rating GLXMA ([10]; rate 0.125 kg/ha) | Preemergence herbicidal rating GLXMA ([10]; rate 0.25 kg/ha) | Postemergence herbicidal rating ABUTH ([15]; rate 0.016 kg/ha) | Postemergence herbicidal rating ABUTH ([15]; rate 0.032 kg/ha) | Postemergence herbicidal rating CHEAL ([17]; rate 0.032 kg/ha) | Postemergence herbicidal rating AMBEL ([18]; rate 0.016 kg/ha) | Postemergence herbicidal rating AMBEL ([18]; rate 0.032 kg/ha) | Postemergence herbicidal rating XANST ([20]; rate 0.016 kg/ha) | Postemergence herbicidal rating XANST ([20]; rate 0.032 kg/ha) | Postemergence herbicidal rating IPOHE ([21]; rate 0.016 kg/ha) | Postemergence herbicidal rating IPOHE ([21]; rate 0.032 kg/ha)
8.0: Preemergence herbicidal rating XANST ([8]; rate 0.25 kg/ha) | Postemergence herbicidal rating ZEAMX ([14]; rate 0.016 kg/ha) | Postemergence herbicidal rating ZEAMX ([14]; rate 0.032 kg/ha) | Postemergence herbicidal rating CHEAL ([17]; rate 0.016 kg/ha) | Postemergence herbicidal rating SETVI ([19]; rate 0.016 kg/ha) | Postemergence herbicidal rating SETVI ([19]; rate 0.032 kg/ha)
8.5: Postemergence herbicidal rating GLXMA ([22]; rate 0.016 kg/ha) | Postemergence herbicidal rating GLXMA ([22]; rate 0.032 kg/ha)
3.0: Preemergence herbicidal rating DIGSA ([1]; rate 0.25 kg/ha) | Preemergence herbicidal rating TRZAW ([11]; rate 0.25 kg/ha) | Postemergence herbicidal rating ALMOY ([24]; rate 0.016 kg/ha) | Postemergence herbicidal rating ALMOY ([24]; rate 0.032 kg/ha)
4.0: Preemergence herbicidal rating ECHCG ([4]; rate 0.125 kg/ha)
5.0: Preemergence herbicidal rating XANST ([8]; rate 0.125 kg/ha) | Postemergence herbicidal rating DIGSA ([13]; rate 0.016 kg/ha) | Postemergence herbicidal rating TRZAW ([23]; rate 0.032 kg/ha)
6.0: Preemergence herbicidal rating ECHCG ([4]; rate 0.25 kg/ha) | Preemergence herbicidal rating SETVI ([7]; rate 0.25 kg/ha) | Postemergence herbicidal rating DIGSA ([13]; rate 0.032 kg/ha) | Postemergence herbicidal rating ECHCG ([16]; rate 0.016 kg/ha)
2.0: Preemergence herbicidal rating SETVI ([7]; rate 0.125 kg/ha)
4.5: Postemergence herbicidal rating TRZAW ([23]; rate 0.016 kg/ha)
1.0: Preemergence herbicidal rating ZEAMX ([2]; rate 0.25 kg/ha)
